Converted amounts (≈) assume the structure as drawn. Values belong to the compound of their own block, whether it stands above or below them.
Tests used:
Alpha-glucosidase [1] = biological target: T1, Alpha-glucosidase (Saccharomyces cerevisiae S288c, UniProt P53341+P38158+P07265); experiment: Inhibition of Saccharomyces cerevisiae alpha-glucosidase assessed as release of p-nitrophenol using pNPG as substrate preincubated for 15 mins followed by substrate addition and measured after 5 mins by spectrophotometric assay; format: protein assay
Alpha-glucosidase [2] = biological target: T1, Alpha-glucosidase; experiment: Inhibition of Saccharomyces cerevisiae alpha-glucosidase using pNPG as preincubated for 15 mins followed by substrate addition and measured after 30 mins by spectroscopic analysis
Alpha-glucosidase [3] = biological target: T1, Alpha-glucosidase; experiment: Inhibition of Saccharomyces cerevisiae alpha-glucosidase assessed as release of p-nitrophenol using pNPG as substrate preincubated for 15 mins followed by substrate addition and measured after 15 mins by plate reader analysis; format: protein assay
Alpha-glucosidase [4] = biological target: T1, Alpha-glucosidase; experiment: Inhibition of Saccharomyces cerevisiae alpha-glucosidase using PNPG as substrate incubated for 30 mins by spectrophotometric assay; format: protein assay
Alpha-glucosidase [5] = biological target: T1, Alpha-glucosidase; experiment: Inhibition of Saccharomyces cerevisiae alpha-glucosidase using maltose as substrate incubated for 30 mins by spectrophotometric assay; format: protein assay
Alpha-glucosidase [6] = biological target: T1, Alpha-glucosidase; experiment: Inhibition of yeast alpha-glucosidase using p-nitrophenyl-alpha-D-glucopyranoside as substrate incubated for 30 mins by spectrophotometric assay; format: protein assay

IC50 (Alpha-glucosidase [2]): 142 µM
Compound: COc1cc(O[C@H]2O[C@@H](CO[C@H]3OC[C@@H](O)[C@H](O)[C@H]3O)[C@H](O)[C@H](O)[C@@H]2O)c2c(=O)c3c(O)ccc(OC)c3oc2c1OC

IC50 (Alpha-glucosidase [3]): 12.8 µg/mL (≈ 46.7 µM)
Compound: COc1c(O)cc(O)c2c(=O)c3cc(O)ccc3oc12

IC50 (Alpha-glucosidase [3]): 27.6 µg/mL (≈ 107 µM)
Compound: COc1ccc(O)c2c(=O)c3cc(O)ccc3oc12

IC50 (Alpha-glucosidase [2]): 578 µM
Compound: COc1ccc(O)c2c(=O)c3c(O[C@H]4O[C@@H](CO)[C@H](O)[C@H](O)[C@@H]4O)cc(O)c(OC)c3oc12

IC50 (Alpha-glucosidase [2]): > 1000 µM
Compound: COc1cccc2c(=O)c3c(O)cc(O[C@H]4O[C@@H](CO)[C@H](O)[C@H](O)[C@@H]4O)c(OC)c3oc12

IC50 (Alpha-glucosidase [2]): 258 µM
Compound: COc1ccc(O)c2c(=O)c3c(O[C@H]4O[C@@H](CO)[C@H](O[C@H]5O[C@@H](CO)[C@H](O)[C@H](O)[C@@H]5O)[C@H](O)[C@@H]4O)cc(O)c(OC)c3oc12

IC50 (Alpha-glucosidase [2]): > 1000 µM
Compound: COc1ccc(O)c2c(=O)c3c(O)cc(O[C@H]4O[C@@H](CO)[C@H](O)[C@H](O)[C@@H]4O)cc3oc12

IC50 (Alpha-glucosidase [3]): 13.2 µg/mL (≈ 45.8 µM)
Compound: COc1cc(O)c2c(=O)c3cc(O)ccc3oc2c1OC

IC50 (Alpha-glucosidase [6]): 69 µM
Compound: COc1c(O)ccc2oc3c4c(c(CC=C(C)C)c(O)c3c(=O)c12)OC(C(C)(O)CCC=C(C)C)C4 (stereo unspecified)

IC50 (Alpha-glucosidase [3]): 48.5 µg/mL (≈ 178 µM)
Compound: COc1ccc2oc3ccc(O)cc3c(=O)c2c1OC

IC50 (Alpha-glucosidase [2]): 679 µM
Compound: O=c1c2c(O)cc(O)cc2oc2c(O)ccc(O[C@@H]3O[C@H](CO)[C@@H](O)[C@H](O)[C@H]3O)c12 [NORSWERTIANOLIN]

IC50 (Alpha-glucosidase [2]): 417 µM
Compound: COc1ccc(O)c2c(=O)c3c(O[C@H]4O[C@@H](CO[C@H]5OC[C@@H](O)[C@H](O)[C@H]5O)[C@H](O)[C@H](O)[C@@H]4O)cc(O)c(OC)c3oc12

IC50 (Alpha-glucosidase [3]): 59 µg/mL (≈ 185 µM)
Compound: COc1cc(OC)c2c(=O)c3c(O)c(OC)ccc3oc2c1O

IC50 (Alpha-glucosidase [2]): 442 µM
Compound: COc1c(OC)c(O[C@H]2O[C@@H](CO[C@H]3OC[C@@H](O)[C@H](O)[C@H]3O)[C@H](O)[C@H](O)[C@@H]2O)c2c(=O)c3c(O)ccc(OC)c3oc2c1OC

IC50 (Alpha-glucosidase [2]): 136 µM
Compound: COc1cc(O)c2c(=O)c3c(O[C@H]4O[C@@H](CO[C@H]5OC[C@@H](O)[C@H](O)[C@H]5O)[C@H](O)[C@H](O)[C@@H]4O)ccc(OC)c3oc2c1OC

IC50 (Alpha-glucosidase [3]): 63.4 µg/mL (≈ 208 µM)
Compound: COc1c(O)cc2oc3ccc(O)c(OC)c3c(=O)c2c1O

IC50 (Alpha-glucosidase [2]): 478 µM
Compound: COc1ccc(O)c2c(=O)c3c(O[C@H]4O[C@@H](CO[C@@H]5O[C@@H](CO)[C@H](O)[C@H](O)[C@@H]5O)[C@H](O)[C@H](O)[C@@H]4O)cc(O)c(OC)c3oc12

IC50 (Alpha-glucosidase [6]): 18.2 µM
Compound: C=C(C)/C=C/c1c(OC)c(OC)cc2oc3cc(O)c(CC=C(C)C)c(O)c3c(=O)c12

IC50 (Alpha-glucosidase [2]): 389 µM
Compound: COc1cc(O)c2c(=O)c3c(O[C@@H]4O[C@H](CO)[C@@H](O)[C@H](O)[C@H]4O)ccc(O)c3oc2c1 [SWERTIANOLIN]

IC50 (Alpha-glucosidase [4]): 63.5 µM
IC50 (Alpha-glucosidase [5]): > 200 µM
Compound: C=C(C)/C=C/c1ccc2oc3c(O)cc(OC)c(CC=O)c3c(=O)c2c1O

IC50 (Alpha-glucosidase [6]): 21.2 µM
Compound: CC1Oc2cc(O)c3c(=O)c4c(O)ccc(O)c4oc3c2C1(C)C (stereo unspecified)

IC50 (Alpha-glucosidase [2]): > 1000 µM
Compound: COc1c(OC)c(O)c2c(=O)c3c(O[C@H]4O[C@@H](CO[C@H]5OC[C@@H](O)[C@H](O)[C@H]5O)[C@H](O)[C@H](O)[C@@H]4O)ccc(OC)c3oc2c1OC

Second part, the compound before the results:

Compound: C=C(C)/C=C/[C@@]1(C)C=CC2=C(O1)C(CC=C(C)C)=C1O[C@]34C(C(=O)[C@@H]1C2O)[C@@H](OCC)[C@@H]1C[C@H]3C(C)(C)O[C@@]4(C/C=C(\C)C(=O)O)C1=O (stereo partly specified)
IC50 (Alpha-glucosidase [1]): > 300 µM

Compound: CC(C)=CCC/C(C)=C/Cc1c(C)c(CC=C(C)C)c2c(c1O)C(=O)C1=C[C@@H]3C[C@H]4C(C)(C)O[C@@](CC=C(C)C)(C3=O)[C@@]14O2
IC50 (Alpha-glucosidase [1]): > 300 µM

Compound: C=C(C)/C=C/[C@]1(C)C=CC2=C(O1)C(CC=C(C)C)=C1O[C@]34C(C(=O)[C@@H]1C2O)[C@@H](OCC)[C@@H]1C[C@H]3C(C)(C)O[C@@]4(C/C=C(\C)C(=O)O)C1=O (stereo partly specified)
IC50 (Alpha-glucosidase [1]): 111.8 µM

Compound: CC(C)=CCC1=C2O[C@]34C(=C[C@@H]5C[C@H]3C(C)(C)O[C@@]4(CC=C(C)C)C5=O)C(=O)[C@@H]2C(O)C2=C1OC(C)C=C2 (stereo partly specified)
IC50 (Alpha-glucosidase [1]): 140.95 µM

Compound: C=C(C)/C=C/[C@]1(C)C=CC2=C(O1)C(CC=C(C)C)=C1O[C@]34C(C(=O)[C@@H]1C2O)[C@@H](OC)[C@@H]1C[C@H]3C(C)(C)O[C@@]4(C/C=C(\C)C(=O)O)C1=O (stereo partly specified)
IC50 (Alpha-glucosidase [1]): 108.75 µM

Compound: CC(C)=CCC1=C2O[C@]34C(C[C@@H]5C[C@H]3C(C)(C)O[C@@]4(C/C=C(\C)C(=O)O)C5=O)C(=O)[C@@H]2C(O)C2=C1OC(C)C=C2 (stereo partly specified)
IC50 (Alpha-glucosidase [1]): > 300 µM

Compound: C=C(C)/C=C/c1c(OC)cc2c(c1O)Cc1cccc(O)c1O2
IC50 (Alpha-glucosidase [4]): 58.5 µM
IC50 (Alpha-glucosidase [5]): > 200 µM

Compound: COc1cc2c(=O)c3c(O)c(C/C=C(\C)CCC=C(C)C)c(O)cc3oc2cc1O [COWAXANTHONE]
IC50 (Alpha-glucosidase [6]): 44 µM

Compound: C=C(C)/C=C/[C@]1(C)C=CC2=C(O1)C(CC=C(C)C)=C1O[C@]34C(=C[C@@H]5C[C@H]3C(C)(C)O[C@@]4(CC=C(C)C)C5=O)C(=O)[C@@H]1C2O (stereo partly specified)
IC50 (Alpha-glucosidase [1]): 209.2 µM

Compound: C=C(C)C1CCC2(C)CC1c1c(O)c3c(c(CC=C(C)C)c1O2)O[C@]12C(=C[C@@H]4C[C@H]1C(C)(C)O[C@@]2(C/C=C(\C)C(=O)O)C4=O)C3=O (stereo partly specified)
IC50 (Alpha-glucosidase [1]): > 300 µM

Compound: CO[C@@H]1C2C(=O)[C@H]3C(=C(CC=C(C)C)C4=C(C=CC(C)O4)C3O)O[C@@]23[C@H]2C[C@@H]1C(=O)[C@]3(C/C=C(\C)C(=O)O)OC2(C)C (stereo partly specified)
IC50 (Alpha-glucosidase [1]): 136.35 µM

Compound: C=C(C)/C=C/[C@@]1(C)C=CC2=C(O1)C(CC=C(C)C)=C1O[C@]34C(=C[C@@H]5C[C@H]3C(C)(C)O[C@@]4(CC=C(C)C)C5=O)C(=O)[C@@H]1C2O (stereo partly specified)
IC50 (Alpha-glucosidase [1]): > 300 µM

Compound: C=C(C)/C=C/c1c(O)c(OC)c(/C=C/C(=C)C)c2c(=O)c3c(O)c(CC(O)C(=C)C)c(O)cc3oc12 (stereo unspecified)
IC50 (Alpha-glucosidase [6]): 8.3 µM

Compound: C=C(C)/C=C/c1c(O)cc2oc3cc(O)c(OC)c(CCC(C)(C)O)c3c(=O)c2c1O
IC50 (Alpha-glucosidase [4]): 29.9 µM
IC50 (Alpha-glucosidase [5]): 140.2 µM

Compound: C=C(C)/C=C/c1c(OC)c(O)cc2oc3cc4c(c(O)c3c(=O)c12)C=C(O)C(C)(C)O4
IC50 (Alpha-glucosidase [4]): 31.7 µM
IC50 (Alpha-glucosidase [5]): 155.6 µM

Compound: CC(C)=CCC/C(C)=C/Cc1c(C)c(CC=C(C)C)c2c(c1O)C(=O)C1=C[C@@H]3C[C@H]4C(C)(C)O[C@@](C/C=C(\C)C(=O)O)(C3=O)[C@@]14O2
IC50 (Alpha-glucosidase [1]): > 300 µM

Compound: C=C(C)/C=C/c1c(OC)cc2c(c1O)Cc1c(O)ccc(O)c1O2
IC50 (Alpha-glucosidase [4]): 50.5 µM
IC50 (Alpha-glucosidase [5]): > 200 µM

Compound: C=C(C)/C=C/c1c(OC)c(O)cc2oc3cc4c(c(O)c3c(=O)c12)C=CC(C)(C)O4
IC50 (Alpha-glucosidase [4]): 34.2 µM
IC50 (Alpha-glucosidase [5]): 92.2 µM

Compound: C=C(C)C1Cc2c(c(O)cc3oc4cc(O)c(CC=C(C)C)c(O)c4c(=O)c23)O1 (stereo unspecified) [MANGOSTENONE G]
IC50 (Alpha-glucosidase [4]): 45 µM
IC50 (Alpha-glucosidase [5]): > 200 µM

Compound: C=C(C)/C=C/[C@@]1(C)C=CC2=C(O1)C(CC=C(C)C)=C1O[C@]34C(C(=O)[C@@H]1C2O)[C@@H](OC)[C@@H]1C[C@H]3C(C)(C)O[C@@]4(C/C=C(\C)C(=O)O)C1=O (stereo partly specified)
IC50 (Alpha-glucosidase [1]): 282.7 µM

Compound: C=C(C)/C=C/c1c(OC)c(OC)cc2oc3cc(O)c(CC(O)C(=C)C)c(O)c3c(=O)c12 (stereo unspecified)
IC50 (Alpha-glucosidase [6]): 94.4 µM

Compound: C=C(C)/C=C/C1(C)C=CC2=C(O1)C(CC=C(C)C)=C1O[C@]34C(C(=O)[C@@H]1C2O)[C@@H](O)[C@@H]1C[C@H]3C(C)(C)O[C@@]4(C/C=C(\C)C(=O)O)C1=O (stereo partly specified)
IC50 (Alpha-glucosidase [1]): 194.7 µM

Reference: ChEMBL document CHEMBL5244222, “A comprehensive review on xanthone derivatives as α-glucosidase inhibitors” (Eur J Med Chem, 2018)
